Target: 15-cis-phytoene desaturase (Synechococcus elongatus (strain PCC 7942) (Anacystis nidulans R2), UniProt P26294)
Test: Inhibition of Synechococcus PCC 7942 phytoene desaturase expressed in Escherichia coli JM101 using phytoene as substrate after 8 hr by Dixon plot analysis
Details: read-out: I50

15-cis-phytoene desaturase, sequence (P26294 whole entry): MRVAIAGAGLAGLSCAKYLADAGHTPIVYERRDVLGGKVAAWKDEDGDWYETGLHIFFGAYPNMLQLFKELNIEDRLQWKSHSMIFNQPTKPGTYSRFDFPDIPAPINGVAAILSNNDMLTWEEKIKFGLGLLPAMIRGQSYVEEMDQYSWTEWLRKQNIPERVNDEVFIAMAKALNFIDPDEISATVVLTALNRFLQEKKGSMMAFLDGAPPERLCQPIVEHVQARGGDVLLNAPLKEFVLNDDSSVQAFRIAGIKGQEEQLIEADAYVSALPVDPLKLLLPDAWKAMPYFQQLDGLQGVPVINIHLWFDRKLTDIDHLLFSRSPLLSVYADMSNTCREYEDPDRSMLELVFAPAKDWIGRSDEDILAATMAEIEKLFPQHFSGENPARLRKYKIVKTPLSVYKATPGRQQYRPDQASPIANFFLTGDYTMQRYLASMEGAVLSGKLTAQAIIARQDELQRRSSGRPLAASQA

Structure (SMILES) | IC50 [nM]
CNc1cnn(-c2cccc(C(F)(F)F)c2)c(=O)c1Cl [NORFLURAZONE] | 29
CCC(COc1cccc(C(F)(F)F)c1)OC(=O)NCc1ccccc1 (stereo not drawn) | 13
CCC(CSc1cccc(Cl)c1)OC(=O)NCc1ccccc1 (stereo not drawn) | 5400

Reference: ChEMBL document CHEMBL3046668, “Phytoene desaturase inhibition by O-(2-phenoxy)ethyl-N-aralkylcarbamates” (J Agric Food Chem, 2003)
